Experimental data taken from ChEMBL document CHEMBL4396875, “Hybridization of β-Adrenergic Agonists and Antagonists Confers G Protein Bias” (J Med Chem, 2019).
Values belong to the molecule of their own block, whether it stands above or below them.

Assays:
Type in all cases: cell-based
[1] = biological target: Beta-1 adrenergic receptor (Mus musculus, UniProt P34971); test: Displacement of [3H]-CGP-12177 from murine beta1-adrenergic receptor expressed in HEK293T cells after 60 mins by radioligand competition binding assay
Beta-1 adrenergic receptor (Mus musculus, UniProt P34971), sequence (P34971 whole entry): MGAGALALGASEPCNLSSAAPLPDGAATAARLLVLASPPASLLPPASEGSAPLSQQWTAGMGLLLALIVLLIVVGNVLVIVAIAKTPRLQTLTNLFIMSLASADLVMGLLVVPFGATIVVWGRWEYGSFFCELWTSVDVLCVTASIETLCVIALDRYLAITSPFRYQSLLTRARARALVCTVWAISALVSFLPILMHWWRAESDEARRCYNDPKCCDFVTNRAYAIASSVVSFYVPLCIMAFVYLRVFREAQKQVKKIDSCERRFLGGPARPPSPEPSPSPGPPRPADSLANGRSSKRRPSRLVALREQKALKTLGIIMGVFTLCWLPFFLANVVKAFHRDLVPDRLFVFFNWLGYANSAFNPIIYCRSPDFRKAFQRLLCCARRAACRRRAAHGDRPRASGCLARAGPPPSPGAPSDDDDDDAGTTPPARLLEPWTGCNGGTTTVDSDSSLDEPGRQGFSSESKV

[2] = biological target: T1, Beta-2 adrenergic receptor (Homo sapiens, UniProt P07550); test: Displacement of [3H]-CGP-12177 from human beta2-adrenergic receptor expressed in CHO cells after 60 mins by radioligand competition binding assay
T1 sequence (P07550 whole entry): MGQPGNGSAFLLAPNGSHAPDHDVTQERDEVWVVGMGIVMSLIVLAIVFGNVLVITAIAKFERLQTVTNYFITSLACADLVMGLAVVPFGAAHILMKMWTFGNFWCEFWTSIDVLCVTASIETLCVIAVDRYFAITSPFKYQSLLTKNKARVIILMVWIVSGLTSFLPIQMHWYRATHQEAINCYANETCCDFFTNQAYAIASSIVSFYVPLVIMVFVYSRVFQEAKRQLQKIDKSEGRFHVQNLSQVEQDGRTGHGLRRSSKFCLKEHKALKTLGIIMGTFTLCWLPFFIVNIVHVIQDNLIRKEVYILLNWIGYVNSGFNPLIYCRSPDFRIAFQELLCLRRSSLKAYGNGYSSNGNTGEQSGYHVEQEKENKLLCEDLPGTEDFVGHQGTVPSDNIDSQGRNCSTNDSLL

[3] = biological target: T2, Beta-1 adrenergic receptor (Homo sapiens, UniProt P08588); test: Agonist activity at beta1-adrenergic receptor (unknown origin) expressed in HEK293T cells harboring Rluc2-117-GalphaS/GFP10-Ggamma/Gbeta1 assessed as activation of GalphaS incubated for 5 mins in presence of coelenterazine 400a by BRET assay
T2 sequence (P08588 whole entry): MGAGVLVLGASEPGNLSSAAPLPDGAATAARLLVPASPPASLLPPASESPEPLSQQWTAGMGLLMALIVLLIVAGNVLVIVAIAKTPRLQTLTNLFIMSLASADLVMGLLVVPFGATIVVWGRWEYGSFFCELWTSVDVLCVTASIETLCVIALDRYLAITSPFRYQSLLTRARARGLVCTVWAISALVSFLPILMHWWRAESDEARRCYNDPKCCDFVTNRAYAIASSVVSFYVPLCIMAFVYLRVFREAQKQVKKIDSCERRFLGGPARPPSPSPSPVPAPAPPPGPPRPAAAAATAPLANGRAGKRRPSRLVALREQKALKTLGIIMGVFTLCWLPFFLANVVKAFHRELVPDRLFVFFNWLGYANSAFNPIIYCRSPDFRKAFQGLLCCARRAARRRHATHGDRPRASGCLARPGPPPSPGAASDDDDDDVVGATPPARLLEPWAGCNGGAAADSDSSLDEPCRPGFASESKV

[4] = biological target: T2, Beta-1 adrenergic receptor; test: Agonist activity at beta1-adrenergic receptor (unknown origin) expressed in HEK293T cells harboring GFP/Rluc2-tagged beta-arrestin2 assessed as increase in beta-arrestin2 recruitment incubated for 5 mins in presence of coelenterazine 400a by BRET assay
[5] = biological target: T2, Beta-1 adrenergic receptor; test: Agonist activity at beta1-adrenergic receptor (unknown origin) expressed in HEK293T cells harboring GFP/Rluc2-tagged beta-arrestin2 assessed as increase in beta-arrestin2 recruitment incubated for 5 mins in presence of GRK2 and coelenterazine 400a by BRET assay
[6] = biological target: T2, Beta-1 adrenergic receptor; test: Agonist activity at beta1-adrenergic receptor (unknown origin) expressed in HEK293T cells harboring GFP/Rluc2-tagged beta-arrestin2 assessed as increase in beta-arrestin2 recruitment incubated for 5 mins in presence of GRK5 and coelenterazine 400a by BRET assay
[7] = biological target: T1, Beta-2 adrenergic receptor; test: Agonist activity at beta2-adrenergic receptor (unknown origin) expressed in HEK293T cells harboring Rluc2-117-GalphaS/GFP10-Ggamma/Gbeta1 assessed as activation of GalphaS incubated for 5 mins in presence of coelenterazine 400a by BRET assay
[8] = biological target: T1, Beta-2 adrenergic receptor; test: Agonist activity at beta2-adrenergic receptor (unknown origin) expressed in HEK293T cells harboring GFP/Rluc2-tagged beta-arrestin2 assessed as increase in beta-arrestin2 recruitment incubated for 5 mins in presence of GSK5 and coelenterazine 400a by BRET assay
[9] = biological target: T1, Beta-2 adrenergic receptor; test: Agonist activity at beta2-adrenergic receptor (unknown origin) expressed in HEK293T cells harboring GFP/Rluc2-tagged beta-arrestin2 assessed as increase in beta-arrestin2 recruitment incubated for 5 mins in presence of GSK2 and coelenterazine 400a by BRET assay
[10] = biological target: T1, Beta-2 adrenergic receptor; test: Agonist activity at beta2-adrenergic receptor (unknown origin) expressed in HEK293T cells harboring GFP/Rluc2-tagged beta-arrestin2 assessed as increase in beta-arrestin2 recruitment incubated for 5 mins in presence of coelenterazine 400a by BRET assay

Ki [1]: 340 nM | Ki [2]: 170 nM
Compound: COc1ccccc1OCCNC[C@@H](O)c1cccc2[nH]c3ccccc3c12

Ki [1]: > 10000 nM | Ki [2]: 6900 nM
Compound: CC(C)NCCCOc1ccc(O)c(O)c1

Ki [1]: 6.5 nM | Ki [2]: 7.2 nM | EC50 ([3]; read-out: pEC50 (converted)): 2510 nM | EC50 [4]: 10000 nM | EC50 [5]: 2510 nM | EC50 [6]: 7940 nM | EC50 [7]: 12600 nM | EC50 [8]: 2000 nM
Compound: COc1cc(CCNC[C@H](O)COc2ccc(O)c(O)c2)ccc1OCCCc1ccccc1

Ki [1]: 550 nM
Compound: OCc1cc(C(O)CNCCCCCCOCCCCc2ccccc2)ccc1O (racemic) [SALMETEROL]

Ki [1]: 860 nM | Ki [2]: 420 nM
Compound: CC(C)NC[C@@H](O)COc1ccc(O)c(O)c1

Ki [1]: > 10000 nM | Ki [2]: 920 nM
Compound: COc1ccccc1OCCNCCCc1ccc(O)c(O)c1

Ki [1]: 6.6 nM | Ki [2]: 3.3 nM
Compound: COc1ccccc1OCCNC[C@H](O)c1cccc2[nH]c3ccccc3c12

Ki [1]: 2400 nM | Ki [2]: 740 nM
Compound: COc1ccccc1OCCNC[C@@H](O)Cc1ccc(O)c(O)c1

Ki [1]: 14 nM | Ki [2]: 12 nM | EC50 ([3]; read-out: pEC50 (converted)): 631 nM | EC50 [4]: 631 nM | EC50 [5]: 1000 nM | EC50 [6]: 316 nM | EC50 [7]: 794 nM | EC50 [9]: 316 nM | EC50 [8]: 251 nM
Compound: CC(C)NC[C@H](O)COc1ccc(O)c(O)c1

Ki [1]: 330 nM | Ki [2]: 26 nM
Compound: COc1ccccc1OCCNCCc1cccc2[nH]c3ccccc3c12

EC50 ([3]; read-out: pEC50 (converted)): 2000 nM | EC50 [4]: 794 nM | EC50 [5]: 794 nM | EC50 [6]: 501 nM | EC50 [7]: 100 nM | EC50 [10]: 724 nM | EC50 [9]: 501 nM | EC50 [8]: 417 nM
Compound: COc1cc(CCNC[C@H](O)c2ccc(O)c(O)c2)ccc1OCCCc1ccccc1

Ki [1]: 24 nM | Ki [2]: 5.4 nM
Compound: COc1ccccc1OCCNCCCOc1cccc2[nH]c3ccccc3c12

EC50 ([3]; read-out: pEC50 (converted)): 39.8 nM | EC50 [4]: 79.4 nM | EC50 [5]: 63.1 nM | EC50 [6]: 51.3 nM | EC50 [7]: 63.1 nM | EC50 [10]: 269 nM | EC50 [9]: 158 nM | EC50 [8]: 100 nM
Compound: COc1ccccc1OCCNC[C@H](O)c1ccc(O)c(O)c1

Ki [1]: 310 nM | Ki [2]: 120 nM
Compound: COc1cc(CCNC[C@@H](O)COc2ccc(O)c(O)c2)ccc1OCCCc1ccccc1

Ki [1]: 12 nM | Ki [2]: 21 nM | EC50 ([3]; read-out: EC50): 300 to 800 nM | EC50 ([3]; read-out: pEC50 (converted)): 794 nM | EC50 [4]: 316 nM | EC50 [5]: 398 nM | EC50 [6]: 398 nM | EC50 [7]: 12600 nM | EC50 [9]: 794 nM | EC50 [8]: 631 nM
Compound: COc1ccccc1OCCNC[C@H](O)COc1ccc(O)c(O)c1

Ki [1]: > 10000 nM | Ki [2]: 5200 nM
Compound: COc1ccccc1OCCNC[C@H](O)Cc1ccc(O)c(O)c1

Ki [1]: 7400 nM | Ki [2]: 7900 nM
Compound: COc1ccccc1OCCNC[C@@H](O)COc1ccc(O)c(O)c1

Ki [1]: > 10000 nM | Ki [2]: 3800 nM
Compound: COc1ccccc1OCCNCCCOc1ccc(O)c(O)c1

Ki [1]: 1200 nM | Ki [2]: 700 nM
Compound: COc1cc(CCNCCCOc2ccc(O)c(O)c2)ccc1OCCCc1ccccc1
